Data taken from patent US6380255B1, “Treatment for dermal skin atrophy using thyroid hormone compounds or thyroid hormone-like compounds” (Karo Bio AB, priority 1995, dated 2002).
Several values for one entry are separate records, joined by “and”; a condition that tells them apart may be missing. Equal values may be shown once.

Tested on: Balb/c mice
Experiment: Prevention of glucocorticoid (betamethasone)-induced dermal atrophy in normal mice, dermis thickness in Van Gieson stained biopsies
Format: in vivo, mouse
Settings: for Thickness of dermis, mean (mm) / Thickness of dermis (mm) in 5 low power fields (×10): one week
From the text: Normal Balb/c mice were used for the experiments. […] Therefore each averaged measurement represents 25 determinations.
In FIGS. 1-3, the arrows show the dermal layer which is predominantly collagen fibers.

[1] = Bet. 0.2 mM + 0.0008 mM test compound, topical daily
[2] = Bet. 0.2 mM + 0.008 mM test compound, topical daily
[3] = Bet. 0.2 mM + 0.08 mM test compound, topical daily
[4] = Bet. 0.2 mM + 0.8 mM test compound, topical daily

| Compound | Thickness of dermis, mean (mm) (Bet. 0.2 mM + placebo cr. (hydrophilic cream)) | Thickness of dermis (mm) in 5 low power fields (×10) (Bet. 0.2 mM + placebo cr. (hydrophilic cream), listed as Bet.) | Thickness of dermis, mean (mm) (Betamethasone 0.2 mM alone, 100 μl topical daily) | Appearance of dermis in biopsy micrograph (FIG. 1) (betamethasone alone for one week) | Thickness of dermis (mm) in 5 low power fields (×10) [1] | Thickness of dermis, mean (mm) [1] | Thickness of dermis (mm) in 5 low power fields (×10) [2] | Thickness of dermis, mean (mm) [2] | Thickness of dermis (mm) in 5 low power fields (×10) [3] | Thickness of dermis, mean (mm) [3] | Thickness of dermis (mm) in 5 low power fields (×10) [4] | Thickness of dermis, mean (mm) [4] | Thickness of dermis (mm) in 5 low power fields (×10) (0.8 mM test compound alone (no betamethasone)) | Appearance of dermis in biopsy micrograph (FIG. 3) (Triac alone for one week) | Concentration at which the effect on betamethasone-induced atrophy saturates (range 0.0008 to 8 mM) |
| --- | --- | --- | --- | --- | --- | --- | --- | --- | --- | --- | --- | --- | --- | --- | --- |
| C[C@H]1C[C@H]2[C@@H]3CCC4=CC(=O)C=C[C@]4(C)[C@@]3(F)[C@@H](O)C[C@]2(C)[C@@]1(O)C(=O)CO [Betamethasone, betamethasone, reference compound] | 0.40 mm | 0.40 mm and 0.42 mm and 0.38 mm and 0.39 mm | 0.37 mm and 0.42 mm | very thinned |  |  |  |  |  |  |  |  |  |  |  |
| OCc1cc(I)c(Oc2ccc(O)c(I)c2)c(I)c1 [KB-026, 4-(4-hydroxymethyl-2,6-diiodophenoxy)-2-iodo-phenol] |  |  |  |  | 0.40 mm and 0.41 mm and 0.42 mm | 0.41 mm | 0.45 mm and 0.42 mm and 0.46 mm and 0.44 mm | 0.44 mm | 0.44 mm and 0.50 mm and 0.49 mm and 0.46 mm | 0.48 mm | 0.50 mm and 0.52 mm and 0.48 mm and 0.51 mm | 0.50 mm |  |  |  |
| CC(C)c1cc(Oc2c(Br)cc(Cc3nnn[nH]3)cc2Br)ccc1O [KB-067, 4-[2,6-dibromo-4-(1H-tetrazol-5-ylmethyl)-phenoxy]-2-isopropyl-phenol] |  |  |  |  | 0.42 mm and 0.39 mm and 0.40 mm | 0.40 mm | 0.40 mm and 0.39 mm and 0.41 mm | 0.40 mm | 0.40 mm and 0.41 mm and 0.39 mm | 0.40 mm | 0.45 mm and 0.46 mm and 0.47 mm and 0.48 mm | 0.46 mm |  |  |  |
| O=C(O)Cc1cc(I)c(Oc2ccc(O)c(I)c2)c(I)c1 [TriAc, [4-(4-hydroxy-3-iodophenoxy)-3,5-diiodophenyl]acetic acid] |  |  |  |  | 0.40 mm and 0.36 mm and 0.38 mm | 0.38 mm | 0.40 mm and 0.44 mm | 0.45 mm |  |  |  |  | 0.72 mm and 0.82 mm and 0.84 mm and 0.76 mm | very dense and thicker than that shown in FIG. 2 | approximately 0.8 mM |
| O=C(O)CCc1cc(I)c(Oc2ccc(O)c(I)c2)c(I)c1 [TriProp] |  |  |  |  | 0.41 mm and 0.40 mm and 0.46 mm | 0.42 mm | 0.45 mm and 0.50 mm and 0.40 mm and 0.42 mm and 0.48 mm | 0.45 mm | 0.50 mm and 0.48 mm and 0.47 mm and 0.44 mm | 0.48 mm | 0.50 mm and 0.45 mm and 0.47 mm and 0.48 mm and 0.52 mm | 0.48 mm |  |  |  |
